# Results as given in the supplement of paper PMC11061612.
# Experiments:
# Assay in all cases: combination Emax (second highest fraction inhibited in the dose matrix, 72 h); higher = more inhibition; extreme values may be limits of the assay
# [1] = test system: PSN1 (Pancreatic Carcinoma)
# Summary of the method: (§1)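 Cell lines grown in DMEM/F12 or RPMI with 10% FBS were plated in 1536-well plates and held 24 hours at 37°C, 5% CO2 before 72 hours of exposure to two-drug dose matrices, with DMSO typically at 0.2%. CellTiter-Glo 2.0 luminescence gave viability, which was converted to inhibition. Vehicle wells were set to 0 and blank wells to 1. Combination Emax is the second-highest inhibition in the matrix, and Bliss excess is the observed combination effect minus the expected EA + EB − EA·EB, where EA and EB are the single-agent effects.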
# [2] = test system: L-1236 (Hodgkin's Lymphoma)
# Summary of the method: as §1
# [3] = test system: RERF-GC-1B (Gastric Carcinoma)
# Summary of the method: as §1
# [4] = test system: LXF-289 (Lung Adenocarcinoma)
# Summary of the method: as §1
# [5] = test system: FADU (Head and Neck Carcinoma)
# Summary of the method: as §1
# [6] = test system: VAL (B-Cell Non-Hodgkin's Lymphoma)
# Summary of the method: as §1
# [7] = test system: PC-3_[JPC-3] (Lung Adenocarcinoma)
# Summary of the method: as §1
# [8] = test system: LB996-RCC (Kidney Carcinoma)
# Summary of the method: as §1
# [9] = test system: GP5d (Colorectal Carcinoma)
# Summary of the method: as §1
# [10] = test system: SK-PN-DW (Other Solid Carcinomas)
# Summary of the method: as §1
# LN-229 (Glioblastoma) = test system: LN-229 (Glioblastoma)
# Summary of the method: as §1
# [11] = test system: OPM-2 (Plasma Cell Myeloma)
# Summary of the method: as §1
# [12] = test system: HSC-39 (Gastric Carcinoma)
# Summary of the method: as §1
# [13] = test system: RCM-1 (Colorectal Carcinoma)
# Summary of the method: as §1
# [14] = test system: KE-37 (T-Lymphoblastic Leukemia)
# Summary of the method: as §1
# [15] = test system: NCI-H2342 (Lung Adenocarcinoma)
# Summary of the method: as §1
# [16] = test system: NCI-H446 (Small Cell Lung Carcinoma)
# Summary of the method: as §1
# [17] = test system: HCT-15 (Colorectal Carcinoma)
# Summary of the method: as §1
# SF268 (Low Grade Glioma) = test system: SF268 (Low Grade Glioma)
# Summary of the method: as §1
# [18] = test system: HEC-1 (Endometrial Carcinoma)
# Summary of the method: as §1
SMILES,combination Emax [1],combination Emax [2],combination Emax [3],combination Emax [4],combination Emax [5],combination Emax [6],combination Emax [7],combination Emax [8],combination Emax [9],combination Emax [10],combination Emax (LN-229 (Glioblastoma)),combination Emax [11],combination Emax [12],combination Emax [13],combination Emax [14],combination Emax [15],combination Emax [16],combination Emax [17],combination Emax (SF268 (Low Grade Glioma)),combination Emax [18]
"NC1(C(=O)N[C@@H](CCO)c2ccc(Cl)cc2)CCN(c2ncnc3[nH]ccc23)CC1 [Capivasertib] + Cn1cnc2c(F)c(Nc3ccc(Br)cc3Cl)c(C(=O)NOCCO)cc21 [Selumetinib] (first compound max 10 µM, 7x7, partner max 10 µM)",0.772,0.844,0.6,0.62,0.531,0.607,0.382,0.678,0.807,0.597,0.484,1,0.852,0.668,0.707,0.381,0.657,0.559,0.315,0.239
"COc1cccc2c1C(=O)c1c(O)c3c(c(O)c1C2=O)C[C@@](O)(C(=O)CO)C[C@@H]3O[C@H]1C[C@H](N)[C@H](O)[C@H](C)O1 [Doxorubicin] + Cc1cc2ncnn2cc1Nc1ncc2c(n1)n(C1CCOCC1)c(=O)n2C [AZD7648] (first compound max 1 µM, 7x7, partner max 10 µM)",0.788,0.682,0.779,0.4,0.928,1,0.57,0.796,0.693,0.814,0.609,0.845,0.867,0.605,1,0.349,0.923,0.742,0.538,0.367
"COc1cc2ncnc(Nc3ccc(F)c(Cl)c3)c2cc1OCCCN1CCOCC1 [Gefitinib] + CC(C)n1c(=O)n(C)c2cnc3cc(F)c(-c4ccc(OCCCN5CCCCC5)nc4)cc3c21 [AZD1390] (first compound max 10 µM, 7x7, partner max 0.3 µM)",0.102,0.254,0.265,0.0907,0.471,0.527,0.67,0.391,0.281,0.184,0.0879,0.203,0.217,0.41,0.357,0.0812,0.314,0.352,0.155,0.0663
"CS(=O)(=O)CCNCc1ccc(-c2ccc3ncnc(Nc4ccc(OCc5cccc(F)c5)c(Cl)c4)c3c2)o1 [Lapatinib] + C[C@@H](Oc1cc(-c2cnn(C3CCNCC3)c2)cnc1N)c1c(Cl)ccc(F)c1Cl [Crizotinib] (first compound max 10 µM, 7x7, partner max 10 µM)",0.806,0.984,0.951,1,0.931,0.808,0.922,0.98,0.979,0.938,0.334,0.944,0.981,0.865,0.975,0.43,0.965,0.925,0.902,0.182
"CC(=O)c1c(C)c2cnc(Nc3ccc(N4CCNCC4)cn3)nc2n(C2CCCC2)c1=O [Palbociclib] + CC1(C)CCC(CN2CCN(c3ccc(C(=O)NS(=O)(=O)c4ccc(NCC5CCOCC5)c([N+](=O)[O-])c4)c(Oc4cnc5[nH]ccc5c4)c3)CC2)=C(c2ccc(Cl)cc2)C1 [Venetoclax] (first compound max 10 µM, 7x7, partner max 1 µM)",0.437,0.611,0.0488,0.225,0.17,0.997,0.176,0.318,0.31,0.257,0.0912,0.38,0.633,0.394,0.776,0.0497,0.462,0.526,0.254,0.0102
"CC(=O)c1c(C)c2cnc(Nc3ccc(N4CCNCC4)cn3)nc2n(C2CCCC2)c1=O [Palbociclib] + Cc1c2c(nn1C)CSCc1cc(n(C)n1)CSc1cc(c3ccccc3c1)OCCCc1c(C(=O)O)n(C)c3c-2c(Cl)ccc13 [AZD5991] (first compound max 10 µM, 7x7, partner max 1 µM)",0.564,0.782,0.784,0.6,0.888,0.717,0.241,0.397,0.881,0.787,0.228,1,0.995,0.327,0.687,0.348,0.556,0.532,0.362,0.153
"CC(=O)c1c(C)c2cnc(Nc3ccc(N4CCNCC4)cn3)nc2n(C2CCCC2)c1=O [Palbociclib] + Cn1cnc2c(F)c(Nc3ccc(Br)cc3Cl)c(C(=O)NOCCO)cc21 [Selumetinib] (first compound max 10 µM, 7x7, partner max 10 µM)",0.702,0.658,0.333,0.297,0.412,0.599,0.29,0.285,0.768,0.261,0.277,0.448,0.667,0.63,0.71,0.107,0.567,0.523,0.218,0.056
"COc1cccc(OCCCN)c1-c1cc(Nc2cnc(C#N)cn2)n[nH]1 [Prexasertib] + C=CCn1c(=O)c2cnc(Nc3ccc(N4CCN(C)CC4)cc3)nc2n1-c1cccc(C(C)(C)O)n1 [AZD1775] (first compound max 1 µM, partner max 1 µM)",0.781,0.786,0.887,0.834,0.914,0.921,0.588,0.877,1,0.968,0.738,0.967,1,0.822,1,0.415,0.995,0.972,0.561,0.715
"COc1cccc(OCCCN)c1-c1cc(Nc2cnc(C#N)cn2)n[nH]1 [Prexasertib] + CCc1c2c(nc3ccc(O)cc13)-c1cc3c(c(=O)n1C2)COC(=O)[C@]3(O)CC [SN-38] (first compound max 1 µM, 7x7, partner max 0.3 µM)",0.931,0.883,0.994,0.787,0.998,0.961,0.802,0.947,0.949,0.953,0.767,0.972,1,0.887,1,0.283,1,0.993,0.937,0.894
"COc1cccc(OCCCN)c1-c1cc(Nc2cnc(C#N)cn2)n[nH]1 [Prexasertib] + CN(C)CCCOc1ccc(-c2ccc3ncc4c(c3c2)n(C2CCOCC2)c(=O)n4C)cn1 [AZD0156] (first compound max 1 µM, 7x7, partner max 1 µM)",0.444,0.792,0.616,0.772,0.808,0.924,0.384,0.712,0.983,0.948,0.725,0.936,1,0.818,1,0.345,0.982,0.92,0.493,0.655
"COc1cccc(OCCCN)c1-c1cc(Nc2cnc(C#N)cn2)n[nH]1 [Prexasertib] + C[C@@H]1COCCN1C2=NC(=NC(=C2)C3(CC3)[S@](=N)(=O)C)C4=C5C=CNC5=NC=C4 [AZD6738] (first compound max 1 µM, 7x7, partner max 10 µM)",0.536,0.799,0.543,0.762,0.918,0.952,0.426,0.786,0.967,0.937,0.791,0.909,1,0.862,1,0.294,0.975,0.95,0.514,0.74
"COc1cccc(OCCCN)c1-c1cc(Nc2cnc(C#N)cn2)n[nH]1 [Prexasertib] + Cc1cc2ncnn2cc1Nc1ncc2c(n1)n(C1CCOCC1)c(=O)n2C [AZD7648] (first compound max 1 µM, 7x7, partner max 10 µM)",0.461,0.776,0.552,0.724,0.851,0.932,0.324,0.776,0.964,0.931,0.725,0.912,1,0.796,1,0.309,0.97,0.935,0.48,0.53
"COc1cccc(OCCCN)c1-c1cc(Nc2cnc(C#N)cn2)n[nH]1 [Prexasertib] + O=C(c1cc(Cc2n[nH]c(=O)c3ccccc23)ccc1F)N1CCN(C(=O)C2CC2)CC1 [Olaparib] (first compound max 1 µM, 7x7, partner max 10 µM)",0.456,0.831,0.552,0.783,0.897,0.93,0.31,0.759,0.945,0.937,0.551,0.943,1,0.596,1,0.302,0.963,0.883,0.623,0.416
